Reference: PubChem BioAssay AID2060906 (Molecular Pharmacology Branch, DTP, NCI, 2025)
Several values for one entry are separate records, joined by “and”; a condition that tells them apart may be missing. Equal values may be shown once.

Test system: 485176-168-R4-J1-PDC complex spheroid growth
Assay: Anticancer human tumor 485176-168-R4-J1-PDC patient-derived pancreatic adenocarcinoma cell line growth inhibition [RAS]
Settings: for viability, T/C: stronger effect = lower value
Method in brief: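 Multi-cell-type spheroids: tumor cells plus HUVEC endothelial cells and mesenchymal stem cells. RAS-pathway inhibitors were combined with targeted agents, each dosed in half-log steps down from clinical Cmax, or from 10 microM when Cmax was unknown.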

[1] = curve of first compound, second compound 0.0316 µM
[2] = curve of first compound, second compound 0.1 µM
[3] = curve of first compound, second compound 0.316 µM
[4] = curve of first compound, second compound 1 µM
[5] = curve of first compound, second compound 3.16 µM
[6] = curve of first compound, second compound 10 µM
[7] = second compound 0.0316 µM, first compound 0.00316 µM
[8] = second compound 0.0316 µM, first compound 0.01 µM
[9] = second compound 0.0316 µM, first compound 0.0316 µM
[10] = second compound 0.0316 µM, first compound 0.1 µM
[11] = second compound 0.0316 µM, first compound 0.316 µM
[12] = second compound 0.0316 µM, first compound 1 µM
[13] = second compound 0.1 µM, first compound 0.00316 µM
[14] = second compound 0.1 µM, first compound 0.01 µM
[15] = second compound 0.1 µM, first compound 0.0316 µM
[16] = second compound 0.1 µM, first compound 0.1 µM
[17] = second compound 0.1 µM, first compound 0.316 µM
[18] = second compound 0.1 µM, first compound 1 µM
[19] = second compound 0.316 µM, first compound 0.00316 µM
[20] = second compound 0.316 µM, first compound 0.01 µM
[21] = second compound 0.316 µM, first compound 0.0316 µM
[22] = second compound 0.316 µM, first compound 0.1 µM
[23] = second compound 0.316 µM, first compound 0.316 µM
[24] = second compound 0.316 µM, first compound 1 µM
[25] = second compound 1 µM, first compound 0.00316 µM
[26] = second compound 1 µM, first compound 0.01 µM
[27] = second compound 1 µM, first compound 0.0316 µM
[28] = second compound 1 µM, first compound 0.1 µM
[29] = second compound 1 µM, first compound 0.316 µM
[30] = second compound 1 µM, first compound 1 µM
[31] = second compound 3.16 µM, first compound 0.00316 µM
[32] = second compound 3.16 µM, first compound 0.01 µM
[33] = second compound 3.16 µM, first compound 0.0316 µM
[34] = second compound 3.16 µM, first compound 0.1 µM
[35] = second compound 3.16 µM, first compound 0.316 µM
[36] = second compound 3.16 µM, first compound 1 µM
[37] = second compound 10 µM, first compound 0.00316 µM
[38] = second compound 10 µM, first compound 0.01 µM
[39] = second compound 10 µM, first compound 0.0316 µM
[40] = second compound 10 µM, first compound 0.1 µM
[41] = second compound 10 µM, first compound 0.316 µM
[42] = second compound 10 µM, first compound 1 µM
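Also: spheroids exposed to compounds for seven days before readout.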
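For viability, T/C in this document: luminescence viability expressed relative to DMSO vehicle wells set as 100%.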

With `C[C@@H](NC(=O)c1ncnc(N)c1Cl)c1ncc(C(=O)Nc2cc(C(F)(F)F)c(Cl)cn2)s1` the viability, T/C (compound 0.0316 µM) was 105% [middle of 4 runs], the viability, T/C (compound 0.1 µM) was 96% [middle of 4 runs] and the viability, T/C (compound 0.316 µM) was 88.5% [middle of 4 runs]. For the same molecule, the viability, T/C (compound 1 µM) was 79.2% [middle of 4 runs], the viability, T/C (compound 3.16 µM) was 79.1% [middle of 4 runs] and the viability, T/C (compound 10 µM) was 60.9% [middle of 4 runs]. The IC50 (curve of compound) was over 10000 nM.

With `Nc1ccn(C2OC(CO)C(O)C2(F)F)c(=O)n1` (stereo not drawn) + C#Cc1c(F)ccc2cc(O)cc(-c3ncc4c(N5CC6CCC(C5)N6)nc(OCC56CCCN5CC(F)C6)nc4c3F)c12 the IC50 [1] was 17.3 nM, the IC50 [2] was 16.4 nM and the IC50 [3] was 14.2 nM. The IC50 [4] was 18.2 nM, the IC50 [5] was 15.3 nM and the IC50 [6] was 15.3 nM. The viability, T/C [7] was 84%, the viability, T/C [8] was 80.9% and the viability, T/C [9] was 15.7%. The viability, T/C [10] was 8.52%, the viability, T/C [11] was 8.6% and the viability, T/C [12] was 8.88%. The viability, T/C [13] was 87.7%, the viability, T/C [14] was 76.1% and the viability, T/C [15] was 15.6%. It also gave a viability, T/C [16] of 8.78%, a viability, T/C [17] of 9.24% and a viability, T/C [18] of 9.6%. For the same molecule, the viability, T/C [19] was 80.7%, the viability, T/C [20] was 66.1% and the viability, T/C [21] was 13.2%. It also gave a viability, T/C [22] of 7.37%, a viability, T/C [23] of 11.3% and a viability, T/C [24] of 10.4%. The viability, T/C [25] was 94.8%, the viability, T/C [26] was 84.9% and the viability, T/C [27] was 17.8%. For the same molecule, the viability, T/C [28] was 7.27%, the viability, T/C [29] was 10.2% and the viability, T/C [30] was 9.53%. The viability, T/C [31] was 82.5%, the viability, T/C [32] was 69.7% and the viability, T/C [33] was 16.5%. For the same molecule, the viability, T/C [34] was 10.8%, the viability, T/C [35] was 10.5% and the viability, T/C [36] was 10.3%. For the same molecule, the viability, T/C [37] was 92.4%, the viability, T/C [38] was 71.2% and the viability, T/C [39] was 14.2%. The viability, T/C [40] was 11.5%, the viability, T/C [41] was 10.9% and the viability, T/C [42] was 9.84%.

In the case of `Cc1nc(N2CCC3(CC2)COC(C)C3N)c(CO)nc1Sc1ccnc(N)c1Cl` (stereo not drawn), the viability, T/C (compound 0.0316 µM) is reported as 102% [middle of 4 runs], the viability, T/C (compound 0.1 µM) is reported as 86.5% [middle of 4 runs] and the viability, T/C (compound 0.316 µM) is reported as 82.8% [middle of 4 runs]. For the same molecule, the viability, T/C (compound 1 µM) was 74.3% [middle of 4 runs], the viability, T/C (compound 3.16 µM) was 84.5% [middle of 4 runs] and the viability, T/C (compound 10 µM) was 63.4% (2×) and 81.9% and 74.9%. For the same molecule, the IC50 (curve of compound) was over 10000 nM.

`C=CC(=O)Nc1cc(Nc2nccc(-c3cn(C)c4ccccc34)n2)c(OC)cc1N(C)CCN(C)C` + C#Cc1c(F)ccc2cc(O)cc(-c3ncc4c(N5CC6CCC(C5)N6)nc(OCC56CCCN5CC(F)C6)nc4c3F)c12 gave an IC50 [1] of over 1000 nM, an IC50 [2] of over 1000 nM and an IC50 [3] of over 1000 nM. The IC50 [4] was over 1000 nM, the IC50 [5] was over 1000 nM and the IC50 [6] was over 1000 nM. The viability, T/C [7] was 103%, the viability, T/C [8] was 90.8% and the viability, T/C [9] was 99%. The viability, T/C [10] was 80.7%, the viability, T/C [11] was 88.9% and the viability, T/C [12] was 66.7%. It also gave a viability, T/C [13] of 115%, a viability, T/C [14] of 109% and a viability, T/C [15] of 92.7%. For the same molecule, the viability, T/C [16] was 92.9%, the viability, T/C [17] was 86.6% and the viability, T/C [18] was 66.8%. The viability, T/C [19] was 82.5%, the viability, T/C [20] was 83.1% and the viability, T/C [21] was 99%. It also gave a viability, T/C [22] of 100%, a viability, T/C [23] of 88.4% and a viability, T/C [24] of 62.3%. It also gave a viability, T/C [25] of 95.8%, a viability, T/C [26] of 80.8% and a viability, T/C [27] of 91%. For the same molecule, the viability, T/C [28] was 96.1%, the viability, T/C [29] was 85.2% and the viability, T/C [30] was 64.4%. It also gave a viability, T/C [31] of 106%, a viability, T/C [32] of 89.5% and a viability, T/C [33] of 96.7%. It also gave a viability, T/C [34] of 75.6%, a viability, T/C [35] of 70.7% and a viability, T/C [36] of 68.5%. It also gave a viability, T/C [37] of 100%, a viability, T/C [38] of 86.6% and a viability, T/C [39] of 85.3%. It also gave a viability, T/C [40] of 103%, a viability, T/C [41] of 84% and a viability, T/C [42] of 61.9%.
